Experimental data published in patent US9650405B2, “Modified sophorolipids as oil solubilizing agents” (Polytechnic Institute of New York University, priority 2010, dated 2017).
Each block holds one compound with its values, some of them ahead of it.

Legend:
[1] = Emulsification of paraffin and rapeseed oil by transalkylidenation MSLs; assay type: physicochemical; settings: for change in emulsions during a 6-week aging period: 1 weight % surfactant, water:paraffin oil 1:1 (v/v), FIG. 22
Method: Mixtures of oil (paraffin or rapeseed) and water, in a 1:1 volume ratio, were prepared. MSL compounds 39, 40, and 41 at 1 weight % relative to water were each assessed as emulsifiers. Each mixture was agitated for 5 min using a homogenizer. […] This is in contrast to the studies above where sophorolipid esters and amides consisting of one hydrophobic arm formed oil-in-water mixtures. For compound 43 that has relatively more hydrophobic character than MSL compounds 39. 40 and 41, paraffin oil and water (1:1 volume ratio) were combined and MSL compound 43 (2 weight % to water) was then added. The mixture was agitated by a homogenizer for 5 minutes. […] The emulsion was stable during the 3 weeks it was monitored (FIG. 24). […] The cloudy parts are emulsified water, and the continuous phase is the oil. […] Condition: 15% (v/v) of water in rapeseeds oil, 1 weight % (relative to water) of compound 40 were mixed and stirred using a homogenizer for 5 minutes (scale bar: 100 μm).

[2] = Lemon oil solubilization, sonication, droplet size by dynamic light scattering; assay type: physicochemical; settings: for average droplet sizes after one month: lemon oil emulsions; for Emulsion Droplet Size / Emulsion Droplet Size, bottom emulsion layer / Emulsion Droplet Size, top emulsion layer: 1 weight-%
Method: MSL's used in this example are SL-hexyl ester (16), SL-octyl ester SL (17), and SL-dodecyl ester (18). To test the MSL capacity for lemon oil solubilization, the volume ratio of water to lemon oil, the concentration of surfactant, and the homogenization time (using a sonicator as the means of homogenization) were varied. Concentration of surfactant is calculated on a w/w basis relative to the mass of water being used. To form emulsions, the MSL or other surfactant is first dissolved in the water, oil is added to the solution, and finally the contents of the water/surfactant+oil system is sonicated. Subsequently, the emulsion is allowed to settle for 24 hours at 25° C. before measurements or visual observations are made.
To evaluate the stability of lemon oil solubilization, photographs of emulsions were recorded daily (after the initial 24 hours). Visual observations consisted of assessing solution clarity, extent of creaming and whether oil separation occurs. After selected time periods measurement of emulsion droplet size was performed by dynamic light scattering, which gives an average droplet size in the solution. […] If the emulsion had creamed (separated into two discreet emulsion layers) the average droplet size for each emulsion layer was determined. The results of this study are listed in Table 6, where the first number represents average droplet size in the top emulsion layer and the second represents the average droplet size in the bottom emulsion layer. […] A better performing emulsifier for this study is defined as functioning to form emulsions with smaller average particle size after the aging period.

[3] = Emulsion stability based on phase separation; assay type: physicochemical
Method: The emulsion was obtained by homogenizing the oil and water mixture and was allowed to settle at room temperature for 24 hours. […] Then, this mixture was homogenized at 13,000 rpm for 2 minutes. Thereafter, the resulting emulsion was left unagitated at 25° C. for 24 hours. Surfactants which give a larger emulsion phase are denoted as having higher emulsion effectiveness (Process Safety and Environment protection, 2005, 83, 38-46). […] Thus, unexpectedly, that longer alkyl chains, at least up to butyl and hexyl, provided improved interfacial stability at the paraffin oil/water interface. […] Apparently, ester bonds of SL-esters are less disruptive to organization at the oil water interface than amide bonds of SL-amides. […] The acidic SL (3) gave an 8% emulsion layer, much lower than the MSL examples given herein. Similarly, the natural SL (1) mixture gave a 10% emulsion layer. This performance is also far below that of SL-butyl amide (24), hexyl amide (25), butyl ester (8) and hexyl ester (16).
After homogenized at 13,000 rpm for 2 minutes, the emulsions were kept at room temperature and separation of the respective oil, emulsion and water layers was recorded for up to 1 month.

[4] = Emulsion droplet size distribution, Coulter LS 230 analyzer; assay type: physicochemical; settings: paraffin oil-to-water 7:3 v/v, 25° C.
Method: Emulsified oil droplet size (average and standard deviation) was measured after suitable dilution of the emulsion phase using a Coulter LS 230 analyzer. […] Relative to natural and lactonic SL, selected MSLs show improved properties as emulsifiers on paraffin oil.
After being aged for 3-months, emulsified oil droplet size (average and standard deviation) was measured after suitable dilution of the emulsion phase using a Coulter LS 230 analyzer and the results are listed in Table 5. […] However, increasing the surfactant concentration from 1 to 2% did result in substantially smaller emulsion-phase droplet sizes. […] This is evidence that MSL's can stabilize oil phases greatly decreasing their tendency to undergo coalescence. […] It follows that the results of 3-month aging studies support the utility of selected MSLs for formation and stabilization of oil-in-water emulsions of paraffin oil phases. One skilled in the art would expect that the ability of these MSLs to stabilize paraffin oil phases teaches that they would also stabilize oil phases of similar structure.

[5] = Crude oil clearing/displacement activity; settings: 20 μL of 1 mg/mL solution
Method: Oil cleaning assays were performed using Louisiana Crude, Arabian Light Crude, and Prudhoe Bay Crude as the oil phase. In one study, the oil clearing/displacement activity of MSLs were assessed using a crude oil layer on top of sea water in order to simulate oil spill type conditions. Sea water (20 mL) was transferred to plastic Petri dishes and 20 μL of a crude oil type was added on top of the water to create an oil layer. Subsequently, a 20 μL aliquot of MSL solution (1 mg/mL) was added dropwise to the top of the oil layer. The instantaneous formation of an oil clearing zone as well as the diameter of the clearing zone was determined as a function of the dispersant used. […] Furthermore, the oil displacement activity of SL-ethyl ester and SL-butyl ester was slightly higher than Triton-X-100 for Arabian Light crude.

[6] = Crude oil emulsification activity (turbidity at 610 nm); settings: emulsifier 1 mg/mL
Method: Emulsification activity was assessed using Louisiana Crude, Arabian Light Crude, and Prudhoe Bay Crude as the oil phase. A 2 mL solution with emulsifier concentration of 1 mg/mL was prepared. A crude oil (10 mg) was added to the emulsifier aqueous solution, the mixture was vortexed for one minute and the emulsified mixture was allowed to stand for 20 minutes. Emulsification activity was determined by measuring turbidity of the emulsion mixture in a spectrophotometer at 610 nm. The results obtained using SL-ethyl ester, SL-butyl ester, the natural sophorolipid mixture and Triton X-100 as emulsifiers are expressed as D610 and are listed in Table 8. […] Furthermore, a remarkable improvement in emulsification activity was obtained for SL-butyl ester relative to the natural sophorolipid mixture. These comparative results for emulsification of Louisiana Crude, Arabian Light Crude, and Prudhoe Bay Crude oil phase could not be anticipated by one skilled in the art.

[7] = paraffin oil and water 1:1 volume ratio, 2 weight % to water
[8] = lemon oil/water 1/99, sonication 60 sec, 1 Week
[9] = lemon oil/water 1/99, sonication 60 sec, 5 Weeks
[10] = lemon oil/water 5/95, sonication 60 sec, 1 Week
[11] = lemon oil/water 5/95, sonication 60 sec, 5 Weeks
[12] = oil (paraffin or rapeseed) and water 1:1 volume ratio, 1 weight % relative to water
[13] = Arabian Light Crude on sea water
[14] = lemon oil/water 1/99, sonication 120 sec, 1 Week

Compound: CCCCCCCCOC(=O)CCCCCCCC=CCCCCCCC(C)OC1OC(CO)C(O)C(O)C1OC1OC(CO)C(O)C(O)C1O (stereo not drawn) [Compound 17, SL-octyl ester]
average droplet sizes after one month [2]: below 1 μm | Emulsion Droplet Size [2, 8]: 92 nm | Emulsion Droplet Size ([2]; lemon oil/water 1/99, sonication 60 sec, 2 Days): 52 nm | Emulsion Droplet Size [2, 9]: 183 nm | Emulsion Droplet Size [2, 10]: 179 nm | Emulsion Droplet Size ([2]; lemon oil/water 5/95, sonication 60 sec, 2 Days): 167 nm | Emulsion Droplet Size [2, 11]: 325 nm

Compound: COC(=O)/C=C/CCCCCCCC(=O)OC1C(COC(C)=O)OC(OC2C(OC(C)CCCCCC/C=C/C(=O)OC)OC(COC(C)=O)C(O)C2O)C(O)C1O (stereo not drawn) [Compound 39]
change in emulsions during a 6-week aging period [1]: no substantial change | emulsion type [1, 12]: water-in-oil emulsions | time the emulsions were stable (monitored period) [1, 12]: ≥ 6 weeks

Compound: CCCCCCCCCCCCOC(=O)CCCCCCCC=CCCCCCCC(C)OC1OC(CO)C(O)C(O)C1OC1OC(CO)C(O)C(O)C1O (stereo not drawn) [Compound 18, SL-dodecyl ester]
average droplet sizes after one month [2]: below 1 μm | Emulsion Droplet Size [2, 8]: 238 nm | Emulsion Droplet Size [2, 9]: 277 nm | Emulsion Droplet Size, bottom emulsion layer [2, 10]: 327 nm | Emulsion Droplet Size, top emulsion layer [2, 10]: 389 nm | Emulsion Droplet Size, bottom emulsion layer [2, 11]: 208 nm | Emulsion Droplet Size, top emulsion layer [2, 11]: 551 nm

Compound: CCOC(=O)/C=C/CCCCCCCC(=O)OC1C(COC(C)=O)OC(OC2C(OC(C)CCCCCC/C=C/C(=O)OCC)OC(COC(C)=O)C(O)C2O)C(O)C1O (stereo not drawn) [Compound 40]
emulsion stability after 6 weeks ([1]; 15% (v/v) of water in rapeseeds oil, 1 weight % relative to water): emulsion remained stable | emulsion type [1, 12]: water-in-oil emulsions | time the emulsions were stable (monitored period) [1, 12]: ≥ 6 weeks

Further lines, with some results ahead:

change in emulsions during a 6-week aging period [1]: no substantial change | emulsion type [1, 7]: water-in-oil emulsion | time the emulsion was stable (monitored period) [1, 7]: ≥ 3 weeks
Compound: CCCCCCCCCCCCOC(=O)/C=C/CCCCCCCC(=O)OC1C(COC(C)=O)OC(OC2C(OC(C)CCCCCC/C=C/C(=O)OCCCCCCCCCCCC)OC(COC(C)=O)C(O)C2O)C(O)C1O (stereo not drawn) [Compound 43]

emulsion type [1, 12]: water-in-oil emulsions | time the emulsions were stable (monitored period) [1, 12]: ≥ 6 weeks
Compound: CCCCOC(=O)/C=C/CCCCCCCC(=O)OC1C(COC(C)=O)OC(OC2C(OC(C)CCCCCC/C=C/C(=O)OCCCC)OC(COC(C)=O)C(O)C2O)C(O)C1O (stereo not drawn) [Compound 41]

emulsion layer, start ([3]; oil/water 7/3, 2%-by-weight, start of aging): 90% | emulsion layer percentage ([3]; paraffin oil/water 5/5, 2%-by-weight emulsifier, after 24 hours at 25° C.): 70% | Average droplet size ([4]; 0.5 weight %, 24 hours): 2.3 ± 0.2 μm | Average droplet size ([4]; 0.5 weight %, aged 3-months): 3.1 ± 0.1 μm | Average droplet size ([4]; 1 weight %, 24 hours): 2.1 ± 0.1 μm | Average droplet size ([4]; 1 weight %, aged 3-months): 2.7 ± 0.1 μm | Average droplet size ([4]; 2 weight %, 24 hours): 1.6 ± 0.2 μm | Average droplet size ([4]; 2 weight %, aged 3-months): 2.0 ± 0.1 μm | Oil displacement activity (diameter of the clearing zone) [5, 13]: 0.65 ± 0.21 cm | Oil displacement activity (diameter of the clearing zone) ([5]; Louisiana Crude on sea water): 0.5 ± 0.14 cm | Oil displacement activity (diameter of the clearing zone) ([5]; Prudhoe Bay Crude on sea water): 1.2 ± 0.42 cm
Compound: CCCCCCCCCCCCOS(=O)(=O)[O-].[Na+] [SDS, Sodium dodecyl sulfate, reference compound]

Emulsion Droplet Size [2, 14]: 379 nm
Compound: Rhamnolipid [reference compound]

Oil displacement activity (diameter of the clearing zone) [5, 13]: 6.05 ± 0.07 cm | Oil displacement activity (diameter of the clearing zone) ([5]; Louisiana Crude on sea water): 5.5 ± 0.21 cm | Oil displacement activity (diameter of the clearing zone) ([5]; Prudhoe Bay Crude on sea water): 7.8 ± 0.07 cm
Compound: Triton X-100 [reference compound]
Emulsification activity (D610) ([6]; Arabian Crude): 0.17 | Emulsification activity (D610) ([6]; Louisiana Crude): 0.28 | Emulsification activity (D610) ([6]; Prudhoe Crude): 0.49

Emulsion Droplet Size ([2]; lemon oil/water 1/99, sonication 120 sec, 1 Month): 233 nm | Emulsion Droplet Size [2, 14]: 173 nm
Compound: TWEEN ® 60 [reference compound]
